The values that follow come from patent EP4467141A1, “PYRAZOLO-QUINOLINES AS SELECTIVE INHIBITORS OF GENOTOXIC STRESS-INDUCED IKK/NF- KB PATHWAYS FOR CANCER THERAPY” (Max-Delbrück-Centrum für Molekulare Medizin in der …, priority 2023, dated 2024).

Usually inhibition stands for the change of the read-out against control, counted positive when it falls.

What all share (experiment): Kinase panel study
Common to all, as to format: biochemical
Holding throughout (conditions): read-out: Percentage of inhibition; for inhibition at 1 µM: 1000nM; for inhibition at 10 µM: 10000nM

One assay concerns the target T1, BRSK1 (SAD1) (Homo sapiens, UniProt Q8TDC3).
T1 construct: purchased Thermo Fisher Scientific
T1 sequence (Q8TDC3 1-778): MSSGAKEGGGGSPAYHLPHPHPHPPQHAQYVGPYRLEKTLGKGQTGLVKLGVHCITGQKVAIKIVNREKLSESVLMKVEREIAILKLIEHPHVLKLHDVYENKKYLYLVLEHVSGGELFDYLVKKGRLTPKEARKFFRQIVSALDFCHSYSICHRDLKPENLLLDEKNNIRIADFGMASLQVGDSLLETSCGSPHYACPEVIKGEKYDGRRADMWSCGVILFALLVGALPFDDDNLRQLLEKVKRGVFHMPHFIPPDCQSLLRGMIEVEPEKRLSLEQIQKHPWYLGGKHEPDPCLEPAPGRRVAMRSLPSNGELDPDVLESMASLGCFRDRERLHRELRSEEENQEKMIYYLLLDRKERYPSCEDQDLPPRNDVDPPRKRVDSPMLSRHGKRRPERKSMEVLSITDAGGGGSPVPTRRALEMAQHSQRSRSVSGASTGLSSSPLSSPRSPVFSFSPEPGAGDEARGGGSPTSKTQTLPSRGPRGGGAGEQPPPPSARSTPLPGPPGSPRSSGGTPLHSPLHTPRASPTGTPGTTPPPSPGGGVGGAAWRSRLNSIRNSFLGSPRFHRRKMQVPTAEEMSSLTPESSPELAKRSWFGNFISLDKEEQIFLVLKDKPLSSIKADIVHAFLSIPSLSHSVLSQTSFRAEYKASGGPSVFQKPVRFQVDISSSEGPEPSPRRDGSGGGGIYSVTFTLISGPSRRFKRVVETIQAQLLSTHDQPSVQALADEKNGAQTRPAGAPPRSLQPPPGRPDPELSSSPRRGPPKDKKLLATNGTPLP
Put shortly: (§1)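 Compounds were tested in vitro against the kinase panel by a service lab. Assays followed standard ZLyte or Adapta protocols. Activity was recorded as % inhibition at 10 µM or 1 µM, with IC50 values where determined.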

The next assay deals with T2, CDK18/cyclin Y (Homo sapiens, UniProt Q07002).
T2 construct: purchased Thermo Fisher Scientific
T2 sequence (Q07002 whole entry): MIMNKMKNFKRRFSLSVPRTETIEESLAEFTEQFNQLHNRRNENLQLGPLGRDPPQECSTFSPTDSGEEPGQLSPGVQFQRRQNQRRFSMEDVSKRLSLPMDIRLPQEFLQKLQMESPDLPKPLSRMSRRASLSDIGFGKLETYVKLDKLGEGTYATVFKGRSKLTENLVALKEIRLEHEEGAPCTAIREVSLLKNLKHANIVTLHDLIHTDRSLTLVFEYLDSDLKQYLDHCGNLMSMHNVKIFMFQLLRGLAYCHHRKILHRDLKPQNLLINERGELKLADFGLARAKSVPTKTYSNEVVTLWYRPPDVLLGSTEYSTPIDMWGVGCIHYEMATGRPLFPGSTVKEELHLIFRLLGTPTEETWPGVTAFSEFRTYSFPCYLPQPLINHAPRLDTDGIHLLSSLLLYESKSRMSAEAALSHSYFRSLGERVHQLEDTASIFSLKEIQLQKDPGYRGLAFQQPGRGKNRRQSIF
T2 sequence (Q8ND76 whole entry partner): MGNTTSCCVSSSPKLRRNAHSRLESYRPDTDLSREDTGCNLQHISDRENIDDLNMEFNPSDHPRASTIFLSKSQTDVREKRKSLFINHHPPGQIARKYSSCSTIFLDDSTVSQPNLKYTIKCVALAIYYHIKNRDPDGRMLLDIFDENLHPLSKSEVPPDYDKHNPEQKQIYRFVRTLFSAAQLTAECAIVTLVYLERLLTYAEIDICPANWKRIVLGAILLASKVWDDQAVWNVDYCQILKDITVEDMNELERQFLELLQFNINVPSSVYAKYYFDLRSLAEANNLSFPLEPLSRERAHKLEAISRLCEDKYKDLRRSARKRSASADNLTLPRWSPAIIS
Summed up: as §1

A further assay addresses T3, EPHA2 (Homo sapiens, UniProt P29317).
T3 construct: purchased Thermo Fisher Scientific
Summed up:
as §1

The target in the next assay is T4, HIPK2 (Homo sapiens, UniProt Q9H2X6).
T4 construct: purchased Thermo Fisher Scientific
T4 sequence (Q9H2X6 whole entry): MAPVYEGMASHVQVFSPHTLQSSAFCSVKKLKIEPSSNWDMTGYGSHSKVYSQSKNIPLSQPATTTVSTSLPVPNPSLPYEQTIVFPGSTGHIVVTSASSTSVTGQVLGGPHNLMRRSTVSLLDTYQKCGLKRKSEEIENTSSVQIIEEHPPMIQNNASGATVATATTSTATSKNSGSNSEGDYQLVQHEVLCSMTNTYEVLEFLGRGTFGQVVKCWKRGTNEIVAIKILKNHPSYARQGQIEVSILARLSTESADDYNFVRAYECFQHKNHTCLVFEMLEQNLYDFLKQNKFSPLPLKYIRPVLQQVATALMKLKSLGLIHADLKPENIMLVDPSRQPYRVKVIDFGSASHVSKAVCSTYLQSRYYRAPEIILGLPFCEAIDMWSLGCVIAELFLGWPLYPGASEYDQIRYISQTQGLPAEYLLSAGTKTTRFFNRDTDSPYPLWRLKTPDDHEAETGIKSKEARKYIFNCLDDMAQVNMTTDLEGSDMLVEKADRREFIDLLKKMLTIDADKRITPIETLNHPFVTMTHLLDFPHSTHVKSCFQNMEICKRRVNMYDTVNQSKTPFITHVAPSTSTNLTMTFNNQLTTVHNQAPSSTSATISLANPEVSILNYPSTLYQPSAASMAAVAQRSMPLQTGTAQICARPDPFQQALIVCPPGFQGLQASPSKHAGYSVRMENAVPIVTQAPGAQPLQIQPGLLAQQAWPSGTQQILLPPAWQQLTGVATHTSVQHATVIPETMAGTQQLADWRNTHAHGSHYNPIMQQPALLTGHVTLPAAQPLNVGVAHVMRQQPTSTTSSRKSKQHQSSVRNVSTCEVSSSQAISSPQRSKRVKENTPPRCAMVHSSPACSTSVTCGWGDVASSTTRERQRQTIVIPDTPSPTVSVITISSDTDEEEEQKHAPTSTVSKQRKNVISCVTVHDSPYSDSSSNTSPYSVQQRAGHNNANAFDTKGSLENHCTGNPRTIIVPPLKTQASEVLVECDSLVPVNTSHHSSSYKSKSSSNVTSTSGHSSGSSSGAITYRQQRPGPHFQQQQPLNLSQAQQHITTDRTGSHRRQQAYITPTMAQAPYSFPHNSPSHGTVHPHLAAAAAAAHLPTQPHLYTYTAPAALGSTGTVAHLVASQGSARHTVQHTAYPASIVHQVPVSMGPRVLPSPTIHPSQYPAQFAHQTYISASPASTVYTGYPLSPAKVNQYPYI
Put shortly:
as §1

The target of a further assay is T5, MERTK (cMER) (Homo sapiens, UniProt Q12866).
T5 construct: purchased Thermo Fisher Scientific
T5 sequence (Q12866 21-999): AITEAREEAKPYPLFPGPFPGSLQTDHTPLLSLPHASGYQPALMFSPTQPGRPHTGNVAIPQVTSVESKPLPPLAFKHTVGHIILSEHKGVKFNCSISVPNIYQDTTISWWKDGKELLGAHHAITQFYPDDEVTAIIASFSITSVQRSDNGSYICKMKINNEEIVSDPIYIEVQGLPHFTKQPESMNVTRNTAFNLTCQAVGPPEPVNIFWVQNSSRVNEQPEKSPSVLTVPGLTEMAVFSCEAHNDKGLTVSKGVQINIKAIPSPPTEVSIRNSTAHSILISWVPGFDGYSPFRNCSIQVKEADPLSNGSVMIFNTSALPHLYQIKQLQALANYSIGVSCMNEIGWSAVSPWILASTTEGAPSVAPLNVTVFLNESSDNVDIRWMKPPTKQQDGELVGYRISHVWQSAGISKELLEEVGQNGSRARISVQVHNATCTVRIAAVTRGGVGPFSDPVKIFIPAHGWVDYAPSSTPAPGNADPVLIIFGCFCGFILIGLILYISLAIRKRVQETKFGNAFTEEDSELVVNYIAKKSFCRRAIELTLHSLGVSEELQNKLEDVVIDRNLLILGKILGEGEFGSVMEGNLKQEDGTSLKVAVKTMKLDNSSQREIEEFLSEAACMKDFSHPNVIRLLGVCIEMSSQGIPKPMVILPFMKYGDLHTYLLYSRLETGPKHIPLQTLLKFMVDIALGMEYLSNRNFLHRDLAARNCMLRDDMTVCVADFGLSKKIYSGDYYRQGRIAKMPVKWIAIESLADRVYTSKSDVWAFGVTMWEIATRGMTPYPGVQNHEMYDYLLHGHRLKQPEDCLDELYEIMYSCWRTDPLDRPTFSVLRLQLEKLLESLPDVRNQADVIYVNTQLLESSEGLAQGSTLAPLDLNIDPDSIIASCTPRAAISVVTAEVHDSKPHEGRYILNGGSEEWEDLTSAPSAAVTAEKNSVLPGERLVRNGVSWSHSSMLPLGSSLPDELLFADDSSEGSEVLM
Summed up:
as §1

For the next assay, the target named is T6, PRKCD (PKC delta) (Homo sapiens, UniProt Q05655).
T6 construct: purchased Thermo Fisher Scientific
T6 sequence (Q05655 whole entry): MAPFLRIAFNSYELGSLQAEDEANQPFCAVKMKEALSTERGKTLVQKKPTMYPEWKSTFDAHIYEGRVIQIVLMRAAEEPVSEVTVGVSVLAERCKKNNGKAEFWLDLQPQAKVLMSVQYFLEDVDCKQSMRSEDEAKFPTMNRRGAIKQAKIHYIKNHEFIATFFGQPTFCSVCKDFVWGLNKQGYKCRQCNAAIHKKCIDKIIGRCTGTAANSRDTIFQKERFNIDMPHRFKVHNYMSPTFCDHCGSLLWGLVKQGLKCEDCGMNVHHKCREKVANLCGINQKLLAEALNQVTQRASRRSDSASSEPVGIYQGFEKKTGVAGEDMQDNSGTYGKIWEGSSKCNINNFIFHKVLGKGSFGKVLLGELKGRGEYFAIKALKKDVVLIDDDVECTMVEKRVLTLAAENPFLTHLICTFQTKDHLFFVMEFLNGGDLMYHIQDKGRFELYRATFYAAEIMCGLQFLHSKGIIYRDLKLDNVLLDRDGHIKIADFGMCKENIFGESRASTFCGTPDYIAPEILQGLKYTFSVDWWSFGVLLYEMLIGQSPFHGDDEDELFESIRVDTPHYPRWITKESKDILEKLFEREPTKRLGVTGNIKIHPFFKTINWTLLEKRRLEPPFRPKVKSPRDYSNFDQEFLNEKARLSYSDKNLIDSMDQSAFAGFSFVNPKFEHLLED
Put shortly: as §1

The target in another assay is T7, TEK (TIE2) Y897S (Homo sapiens, UniProt Q02763, Y897S).
T7 construct: purchased Thermo Fisher Scientific
T7 sequence (Q02763 23-1124 Y897S): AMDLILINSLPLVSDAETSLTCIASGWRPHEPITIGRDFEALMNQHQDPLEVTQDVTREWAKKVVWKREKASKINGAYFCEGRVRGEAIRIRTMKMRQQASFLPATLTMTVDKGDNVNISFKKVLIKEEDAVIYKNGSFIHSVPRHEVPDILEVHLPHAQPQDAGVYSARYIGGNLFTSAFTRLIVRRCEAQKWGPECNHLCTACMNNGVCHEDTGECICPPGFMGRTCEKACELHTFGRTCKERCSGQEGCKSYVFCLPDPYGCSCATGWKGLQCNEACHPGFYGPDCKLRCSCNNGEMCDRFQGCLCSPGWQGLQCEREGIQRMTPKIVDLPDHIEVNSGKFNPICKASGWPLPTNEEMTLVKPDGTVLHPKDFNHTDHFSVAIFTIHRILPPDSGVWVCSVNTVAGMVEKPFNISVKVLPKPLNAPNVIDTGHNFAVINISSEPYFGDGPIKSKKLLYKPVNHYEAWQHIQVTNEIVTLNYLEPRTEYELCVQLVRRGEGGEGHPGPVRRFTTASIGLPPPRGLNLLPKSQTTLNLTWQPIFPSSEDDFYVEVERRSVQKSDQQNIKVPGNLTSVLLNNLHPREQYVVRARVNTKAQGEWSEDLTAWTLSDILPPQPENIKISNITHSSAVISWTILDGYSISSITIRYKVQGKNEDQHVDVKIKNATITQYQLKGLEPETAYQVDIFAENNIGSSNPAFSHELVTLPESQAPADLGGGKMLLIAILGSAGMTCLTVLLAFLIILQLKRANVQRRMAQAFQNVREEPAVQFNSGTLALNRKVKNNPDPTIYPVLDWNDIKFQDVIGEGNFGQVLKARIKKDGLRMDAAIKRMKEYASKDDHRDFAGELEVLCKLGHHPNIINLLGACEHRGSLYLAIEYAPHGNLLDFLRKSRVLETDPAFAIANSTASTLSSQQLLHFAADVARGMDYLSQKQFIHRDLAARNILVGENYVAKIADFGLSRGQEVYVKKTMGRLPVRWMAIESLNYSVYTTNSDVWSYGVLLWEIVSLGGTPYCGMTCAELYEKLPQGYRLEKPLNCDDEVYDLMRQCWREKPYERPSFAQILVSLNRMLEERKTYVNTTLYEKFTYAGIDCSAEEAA
Summed up:
as §1

T3 sequence (P29317 24-976): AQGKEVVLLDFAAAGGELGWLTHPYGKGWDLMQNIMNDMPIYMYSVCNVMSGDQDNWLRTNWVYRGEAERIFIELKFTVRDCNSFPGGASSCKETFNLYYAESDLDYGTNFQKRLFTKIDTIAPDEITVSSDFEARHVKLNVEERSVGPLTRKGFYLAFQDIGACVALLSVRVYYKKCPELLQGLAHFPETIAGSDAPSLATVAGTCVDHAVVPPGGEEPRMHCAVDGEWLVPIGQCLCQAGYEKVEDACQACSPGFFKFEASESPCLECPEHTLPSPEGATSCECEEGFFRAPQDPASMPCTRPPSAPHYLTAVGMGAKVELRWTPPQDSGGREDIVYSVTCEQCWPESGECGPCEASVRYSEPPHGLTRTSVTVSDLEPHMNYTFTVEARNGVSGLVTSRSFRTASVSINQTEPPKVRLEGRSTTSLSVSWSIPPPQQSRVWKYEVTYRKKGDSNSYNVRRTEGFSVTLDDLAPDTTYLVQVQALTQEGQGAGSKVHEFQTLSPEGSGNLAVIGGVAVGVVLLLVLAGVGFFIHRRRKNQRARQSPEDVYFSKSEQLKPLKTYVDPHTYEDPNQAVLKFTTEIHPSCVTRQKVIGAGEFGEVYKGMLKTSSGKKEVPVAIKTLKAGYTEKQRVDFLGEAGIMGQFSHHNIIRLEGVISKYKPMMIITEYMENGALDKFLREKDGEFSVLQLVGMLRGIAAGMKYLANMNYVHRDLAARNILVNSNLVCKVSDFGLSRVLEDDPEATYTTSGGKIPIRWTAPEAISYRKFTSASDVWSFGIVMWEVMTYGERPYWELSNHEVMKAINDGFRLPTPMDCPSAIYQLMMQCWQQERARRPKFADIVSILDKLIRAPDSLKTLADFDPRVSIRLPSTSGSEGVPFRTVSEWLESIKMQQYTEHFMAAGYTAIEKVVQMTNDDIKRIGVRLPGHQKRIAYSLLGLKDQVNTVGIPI

With `COc1ccc2c(c1OC)c(=O)n1c3ccc(O)cc3c3ccnc2c31` [MW01, 5-Hydroxy-10,11-dimethoxy-9H-benzo[c]indolo[3,2,1-ij][1,5]naphthyridin-9-one], the inhibition at 1 µM at BRSK1 (SAD1) came out at 0%; on CDK18/cyclin Y it was 5%; at EPHA2, 6%; at HIPK2, 48%; on MERTK (cMER) it was 54%; on PRKCD (PKC delta) it was 6%. In addition, the inhibition at 1 µM on TEK (TIE2) Y897S was -14%. The inhibition at 10 µM on BRSK1 (SAD1) is 6%; at CDK18/cyclin Y, 15%; on EPHA2, 14%; on HIPK2, 74%; on MERTK (cMER) it was 86%; at PRKCD (PKC delta), 17%. For the same molecule, the inhibition at 10 µM at TEK (TIE2) Y897S is -10%.

Consider `COc1ccc2cc3c(N)nn(C(=O)c4cccc(N(C)C)c4)c3nc2c1` [MW05, (3-Amino-7-methoxypyrazolo[3,4-b]quinolin-1-yl)-[3-(dimethylamino)phenyl]methanone], for which the inhibition at 1 µM was -1% on BRSK1 (SAD1); 13% on CDK18/cyclin Y; 13% on EPHA2; 4% at HIPK2; 4% on MERTK (cMER); 14% on PRKCD (PKC delta). At TEK (TIE2) Y897S, the inhibition at 1 µM was -18%. Moreover, the inhibition at 10 µM at BRSK1 (SAD1) is -6%; at CDK18/cyclin Y it was 55%; at EPHA2 it was -15%; at HIPK2 it was 13%; at MERTK (cMER), 11%; on PRKCD (PKC delta) it was 0%. Further, the inhibition at 10 µM at TEK (TIE2) Y897S is -11%.
